Experimental data: patent publication US20240116875A1, “RATIONAL DESIGN, OPTIMIZATION, AND BIOLOGICAL EVALUATION OF NOVEL MEK4 INHIBITORS AGAINST PANCREATIC ADENOCARCINOMA” (NORTHWESTERN UNIVERSITY, priority 2022, published 2024)
“And” between values parts separate entries of the source, which are not always exact repeats. Equal entries are not always repeated. Where two headings read alike, the source gives them in different places.

Key:
[1] = biological target: T1, recombinant active full-length human MEK4 (Homo sapiens, UniProt P45985); experiment: ADP-Glo kinase activity assay, MEK4; assay type: biochemical
T1 construct: recombinant active full-length human MEK4 (Carna Biosciences); purchased Carna Biosciences
T1 sequence (P45985 1-399): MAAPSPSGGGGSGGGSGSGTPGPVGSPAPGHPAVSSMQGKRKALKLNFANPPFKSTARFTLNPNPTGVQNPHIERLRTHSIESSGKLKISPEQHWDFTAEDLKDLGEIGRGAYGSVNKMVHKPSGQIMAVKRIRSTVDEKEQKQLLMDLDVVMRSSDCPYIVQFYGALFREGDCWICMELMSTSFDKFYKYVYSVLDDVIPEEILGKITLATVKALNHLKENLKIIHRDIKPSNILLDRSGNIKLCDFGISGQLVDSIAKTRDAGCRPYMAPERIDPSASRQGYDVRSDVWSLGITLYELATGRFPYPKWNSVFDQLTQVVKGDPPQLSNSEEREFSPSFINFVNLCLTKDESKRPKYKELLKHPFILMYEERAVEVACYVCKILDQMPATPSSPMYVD
Experimental: (§1) Procedure for a 5 μL Kinase reaction using the ADP-Glo Kinase Assay Kit from Promega. Staurosporine was used as the positive control, and DMSO as the negative control. Activity of recombinant active full-length human MEK4 (Carna Biosciences) was measured using the ADP-Glo assay with recombinant full-length human p38α (MAPK14). Kinase reactions with MEK7 (Carna Biosciences) were done at the same concentration and amounts with recombinant full-length human p38α (MAPK14).
(§2) For each well, 4 ng of MEK4 and 600 ng of p38α in Kinase buffer (CST) were used, and 1 μL of this mixture was dispensed per well.
(§3) Inhibitor was prepared in a DMSO solution. A dose response dilution was done in a 384-well Echo transfer plate. […] This mixture was allowed to incubate for 30 minutes at room temperature.
(§4) Using a Mantis, 1 μL, of an 8 μM ATP solution was added to each well, and the plate was allowed to incubate for another 1 hour at room temperature. […] All experiments were done in triplicate on the plate, and at least in one separate technical duplicate.

[2] = biological target: T2, MEK7 (Homo sapiens, UniProt O14733); experiment: ADP-Glo kinase activity assay, MEK7; assay type: biochemical
T2 construct: purchased Carna Biosciences
T2 sequence (O14733 1-419): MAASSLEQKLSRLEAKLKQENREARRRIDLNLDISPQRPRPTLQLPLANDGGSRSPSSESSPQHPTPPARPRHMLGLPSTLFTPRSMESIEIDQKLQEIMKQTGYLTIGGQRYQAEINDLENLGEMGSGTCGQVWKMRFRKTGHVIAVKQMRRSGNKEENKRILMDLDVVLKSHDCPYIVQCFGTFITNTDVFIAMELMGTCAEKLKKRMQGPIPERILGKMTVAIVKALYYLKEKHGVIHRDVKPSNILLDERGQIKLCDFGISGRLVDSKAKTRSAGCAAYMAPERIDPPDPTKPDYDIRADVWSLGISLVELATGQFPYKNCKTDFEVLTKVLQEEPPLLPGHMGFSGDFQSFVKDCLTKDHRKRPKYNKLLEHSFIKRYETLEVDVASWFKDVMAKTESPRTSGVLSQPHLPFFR
Experimental: The compounds were then evaluated both in vitro and in a cellular system. When studying kinase inhibitors, there are a multitude of ways to evaluate selectivity across kinases.
as §1, §2, §3, §4

[3] = test system: phospho-p42/44 MAPK in CD18 cells; experiment: p42/44 MAPK phosphorylation, western blotting, CD18; assay type: cell-based, human; conditions: CD18, U0126 1 μM or 5 μM, 1 hour pretreatment
Experimental: (§5) The effects of different treatments on phospho-p42/44 MAPK and total p42/44 MAPK expression levels were determined by western blotting. HSP90 was used as loading control. The blots are representative of at least three biological replicates.
(§6) Whole cell extracts of cultured cells were prepared in radioimmunoprecipitation (RIPA) lysis buffer supplemented with phosphatase and protease inhibitors (Calbiochem). Protein concentration was determined by the bicinchoninic acid assay (BCA) (ThermoFisher) and separated by the SDS-PAGE technique. […] Secondary anti-mouse IgG (A4416) and anti-rabbit IgG (A6667) antibodies were purchased from Sigma-Aldrich and used a 1:4000 dilution. Images of blots were acquired on HyBlot ES Autoradiography Film (Thomas Scientific, Swedesboro, NJ, USA) following incubation with SuperSignal West Pico PLUS (ThermoFisher).

[4] = test system: phospho-p42/44 MAPK in MiaPaCa2 cells; experiment: p42/44 MAPK phosphorylation, western blotting, MiaPaCa2; assay type: cell-based, human; conditions: MiaPaCa2, U0126 1 μM or 5 μM
Experimental: as §5, §6

[5] = test system: phospho-p42/44 MAPK in HEK293T cells; experiment: p42/44 MAPK (ERK1/2) phosphorylation, western blotting, HEK293T; assay type: cell-based, human; conditions: anisomycin alone
Experimental: (§7) HSP90 was used as loading control. The blots are representative of at least three biological replicates.
(§8) We next evaluated the effects of our inhibitors on the phosphorylation activity and expression of MEK1/2, MEK3/6, and MEK7. […] We also evaluated the effects on p42/44 MAPK (ERK1/2), which functions downstream of MEK1/2.
as §6

[6] = test system: phospho-p38 MAPK in HEK293T cells; experiment: p38 MAPK phosphorylation, western blotting, HEK293T; assay type: cell-based, human; conditions: anisomycin alone
Experimental: as §7, §8, §6

[7] = headline value per compound, read-out: IC50 (MEK4, ADP-Glo)
[8] = headline value per compound, read-out: MEK7 IC50
[9] = individual experiment, values in brackets, n=3, read-out: MEK7 IC50 of each experiment (IC50±SEM)
[10] = individual experiment, values in brackets, n=3, read-out: IC50 of each experiment (IC50±SEM), MEK4

| Structure (SMILES) | IC50 [1, 7] | IC50 [2, 8] | IC50 [2, 9] | also measured |
| --- | --- | --- | --- | --- |
| Nc1ccccc1-c1n[nH]c2cc(F)ccc12 [Compound 8b, 2-(6-fluoro-1H-indazol-3-yl)aniline] | > 80 µM | – | – | – |
| CCC(=O)Nc1ccccc1-c1n[nH]c2cc(F)ccc12 [Compound 8c, N-(2-(6-fluoro-1H-indazol-3-yl)phenyl)propionamide] | > 80 µM | – | – | – |
| C=CC(=O)Nc1ccccc1-c1n[nH]c2cc(F)ccc12 [Compound 8d, N-(2-(6-fluoro-1H-indazol-3-yl)phenyl)acrylamide] | > 80 µM | – | – | – |
| O=S(=O)(Nc1ccc(-c2n[nH]c3cc(F)ccc23)cc1)c1cccnc1 [Compound 11a, N-(4-(6-fluoro-1H-indazol-3-yl)phenyl)pyridine-3-sulfonamide] | – | 2.7 µM | 1.9 µM and 3.5 µM | – |
| O=S(=O)(Nc1cccc(-c2n[nH]c3cc(F)ccc23)c1)c1cccnc1 [Compound 12a, N-(3-(6-fluoro-1H-indazol-3-yl)phenyl)pyridine-3-sulfonamide] | – | 1.3 µM | 0.94 µM and 1.6 µM | – |
| O=S(=O)(Nc1cccc(-c2n[nH]c3cc(F)ccc23)c1)C1CC1 [Compound 12c, N-(3-(6-fluoro-1H-indazol-3-yl)phenyl)cyclopropanesulfonamide] | – | 6.4 µM | 5.6 µM and 7.1 µM | – |
| O=S(=O)(NC1CC1)c1ccc(-c2n[nH]c3cc(F)ccc23)cc1 [Compound 13c, N-cyclopropyl-4-(6-fluoro-1H-indazol-3-yl)benzenesulfonamide] | – | 8.7 µM | 8.1 µM and 9.3 µM | – |
| O=S(=O)(Nc1ccccc1)c1cccc(-c2n[nH]c3cc(F)ccc23)c1 [Compound 14a, 3-(6-fluoro-1H-indazol-3-yl)-N-phenylbenzenesulfonamide] | – | 0.84 µM | 0.4 µM and 0.61 µM and 1.5 µM | – |
| CC(C)Oc1ccc(NS(=O)(=O)c2cccc(-c3n[nH]c4cc(F)ccc34)c2)cc1 [Compound 15i, 3-(6-fluoro-1H-indazol-3-yl)-N-(4-isopropoxyphenyl)benzenesulfonamide] | – | 2.9 µM | 1.8 µM and 2.2 µM and 4.8 µM | – |
| CS(=O)(=O)c1ccc(NS(=O)(=O)c2cccc(-c3n[nH]c4cc(F)ccc34)c2)cc1 [Compound 15l] | – | 0.92 µM | 0.59 µM and 0.78 µM and 1.4 µM | – |
| CC(=O)c1ccc(NS(=O)(=O)c2cccc(-c3n[nH]c4cc(F)ccc34)c2)cc1 [Compound 15n, N-(4-acetylphenyl)-3-(6-fluoro-1H-indazol-3-yl)benzenesulfonamide] | – | – | 0.74 µM and 1.3 µM and 1.8 µM | – |
| Cn1nc(-c2ccc3c(c2)OCO3)c2ccc(F)cc21 [Compound S2, 3-(benzo[d][1,3]dioxol-5-yl)-6-fluoro-1-methyl-1H-indazole] | > 80 µM | – | – | – |
| Fc1ccc2c(-c3ccc4c(c3)OCO4)nn(Cc3ccccc3)c2c1 [Compound S3, 3-(benzo[d][1,3]dioxol-5-yl)-1-benzyl-6-fluoro-1H-indazole] | > 80 µM | – | – | – |
| Cc1ccc2c(-c3ccc(S(N)(=O)=O)cc3)n[nH]c2c1 [Compound S4, 4-(6-methyl-1H-indazol-3-yl)benzenesulfonamide] | 2.7 µM | – | – | IC50 [1, 10]: 1.6 µM and 3.7 µM |
| NS(=O)(=O)c1ccc(-c2n[nH]c3cc(C(F)(F)F)ccc23)cc1 [Compound S5, 4-(6-(trifluoromethyl)-1H-indazol-3-yl)benzenesulfonanamide] | 3.7 µM | – | – | IC50 [1, 10]: 2.2 µM and 5.2 µM |
| N#CC(=C(/N)Sc1ccccc1N)/C(C#N)=C(\N)Sc1ccccc1N [Compound U0126, reference compound] | – | – | – | effect of U0126 co-treatment on p42/44 MAPK phosphorylation increased by 15o and 10e [3]: suppressed; effect of U0126 on p42/44 MAPK phosphorylation [4]: decreased p42/44 MAPK phosphorylation |
| COc1ccc(C[C@H]2NC[C@H](O)[C@H]2OC(C)=O)cc1 [anisomycin, reference compound] | – | – | – | effect of anisomycin on p42/44 MAPK phosphorylation [5]: decreases p42/44 MAPK phosphorylation; effect of anisomycin on p38 MAPK phosphorylation [6]: did induce phosphorylation |
